Assay results: ChEMBL document CHEMBL3352029, “Ring fusion strategy for the synthesis of anthra[2,3-d]oxazole-2-thione-5,10-dione homologues as DNA topoisomerase inhibitors and as antitumor agents” (Eur J Med Chem, 2014)

Key:
SNB-75 = experiment: Cytotoxicity against human SNB75 cells assessed as cell growth level at 10 uM after 48 hrs by sulforhodamine B assay; assay type: functional
RPMI-8226 = experiment: Cytotoxicity against human RPMI8226 cells assessed as cell growth level at 10 uM after 48 hrs by sulforhodamine B assay; assay type: functional
NCI-H460 = experiment: Cytotoxicity against human NCI-H460 cells assessed as cell growth level at 10 uM after 48 hrs by sulforhodamine B assay; assay type: functional
[1] = Cytotoxicity against human PC3 cells assessed as inhibition of cell growth after 48 hrs by sulforhodamine B assay; assay type: functional, cell-based; conditions: PC-3, 48 h
M14 = experiment: Cytotoxicity against human M14 cells assessed as cell growth level at 10 uM after 48 hrs by sulforhodamine B assay; assay type: functional
[2] = Cytotoxicity against human OVCAR4 cells assessed as cell growth level at 10 uM after 48 hrs by sulforhodamine B assay; assay type: functional, OVCAR-4
SNB-19 = experiment: Cytotoxicity against human SNB19 cells assessed as cell growth level at 10 uM after 48 hrs by sulforhodamine B assay; assay type: functional
[3] = Cytotoxicity against human HCT116 cells assessed as cell growth level at 10 uM after 48 hrs by sulforhodamine B assay; assay type: functional, HCT-116
[4] = Cytotoxicity against human OVCAR5 cells assessed as cell growth level at 10 uM after 48 hrs by sulforhodamine B assay; assay type: functional, OVCAR-5
NCI-H23 = experiment: Cytotoxicity against human NCI-H23 cells assessed as cell growth level at 10 uM after 48 hrs by sulforhodamine B assay; assay type: functional
HOP-62 = experiment: Cytotoxicity against human HOP62 cells assessed as cell growth level at 10 uM after 48 hrs by sulforhodamine B assay; assay type: functional
CAKI-1 = experiment: Cytotoxicity against human CAKI-1 cells assessed as cell growth level at 10 uM after 48 hrs by sulforhodamine B assay; assay type: functional
[5] = Cytotoxicity against human HCT15 cells assessed as cell growth level at 10 uM after 48 hrs by sulforhodamine B assay; assay type: functional, HCT-15
MOLT-4 = experiment: Cytotoxicity against human MOLT4 cells assessed as cell growth level at 10 uM after 48 hrs by sulforhodamine B assay; assay type: functional
[6] = Cytotoxicity against human UACC257 cells assessed as cell growth level at 10 uM after 48 hrs by sulforhodamine B assay; assay type: functional, UACC-257
[7] = Cytotoxicity against human PC3 cells assessed as cell growth level at 10 uM after 48 hrs by sulforhodamine B assay; assay type: functional, PC-3
HT-29 = experiment: Cytotoxicity against human HT-29 cells assessed as cell growth level at 10 uM after 48 hrs by sulforhodamine B assay; assay type: functional
DU-145 = experiment: Cytotoxicity against human DU145 cells assessed as cell growth level at 10 uM after 48 hrs by sulforhodamine B assay; assay type: functional
SW-620 = experiment: Cytotoxicity against human SW620 cells assessed as cell growth level at 10 uM after 48 hrs by sulforhodamine B assay; assay type: functional
786-0 = experiment: Cytotoxicity against human 786-0 cells assessed as cell growth level at 10 uM after 48 hrs by sulforhodamine B assay; assay type: functional
SF-268 = experiment: Cytotoxicity against human SF268 cells assessed as cell growth level at 10 uM after 48 hrs by sulforhodamine B assay; assay type: functional
T47D = experiment: Cytotoxicity against human T47D cells assessed as cell growth level at 10 uM after 48 hrs by sulforhodamine B assay; assay type: functional
MDA-MB-435 = experiment: Cytotoxicity against human MDA-MB-435 cells assessed as cell growth level at 10 uM after 48 hrs by sulforhodamine B assay; assay type: functional
HOP-92 = experiment: Cytotoxicity against human HOP92 cells assessed as cell growth level at 10 uM after 48 hrs by sulforhodamine B assay; assay type: functional
NCI-H226 = experiment: Cytotoxicity against human NCI-H226 cells assessed as cell growth level at 10 uM after 48 hrs by sulforhodamine B assay; assay type: functional
[8] = Cytotoxicity against human UO31 cells assessed as cell growth level at 10 uM after 48 hrs by sulforhodamine B assay; assay type: functional, UO-31
TK-10 = experiment: Cytotoxicity against human TK10 cells assessed as cell growth level at 10 uM after 48 hrs by sulforhodamine B assay; assay type: functional
A498 = experiment: Cytotoxicity against human A498 cells assessed as cell growth level at 10 uM after 48 hrs by sulforhodamine B assay; assay type: functional
SK-MEL-2 = experiment: Cytotoxicity against human SK-MEL-2 cells assessed as cell growth level at 10 uM after 48 hrs by sulforhodamine B assay; assay type: functional
SN12C = experiment: Cytotoxicity against human SN12C cells assessed as cell growth level at 10 uM after 48 hrs by sulforhodamine B assay; assay type: functional
KM12 = experiment: Cytotoxicity against human KM12 cells assessed as cell growth level at 10 uM after 48 hrs by sulforhodamine B assay; assay type: functional
BT-549 = experiment: Cytotoxicity against human BT549 cells assessed as cell growth level at 10 uM after 48 hrs by sulforhodamine B assay; assay type: functional
SF-539 = experiment: Cytotoxicity against human SF539 cells assessed as cell growth level at 10 uM after 48 hrs by sulforhodamine B assay; assay type: functional
[9] = Cytotoxicity against human OVCAR8 cells assessed as cell growth level at 10 uM after 48 hrs by sulforhodamine B assay; assay type: functional, OVCAR-8
NCI-H322M = experiment: Cytotoxicity against human NCI-H322M cells assessed as cell growth level at 10 uM after 48 hrs by sulforhodamine B assay; assay type: functional
LOX IMVI = experiment: Cytotoxicity against human LOXIMVI cells assessed as cell growth level at 10 uM after 48 hrs by sulforhodamine B assay; assay type: functional
[10] = Cytotoxicity against human OVCAR3 cells assessed as cell growth level at 10 uM after 48 hrs by sulforhodamine B assay; assay type: functional, OVCAR-3
[11] = Cytotoxicity against human SKOV3 cells assessed as cell growth level at 10 uM after 48 hrs by sulforhodamine B assay; assay type: functional, SK-OV-3
MDA-MB-468 = experiment: Cytotoxicity against human MDA-MB-468 cells assessed as cell growth level at 10 uM after 48 hrs by sulforhodamine B assay; assay type: functional
SF-295 = experiment: Cytotoxicity against human SF295 cells assessed as cell growth level at 10 uM after 48 hrs by sulforhodamine B assay; assay type: functional
K562 = experiment: Cytotoxicity against human K562 cells assessed as cell growth level at 10 uM after 48 hrs by sulforhodamine B assay; assay type: functional
ACHN = experiment: Cytotoxicity against human ACHN cells assessed as cell growth level at 10 uM after 48 hrs by sulforhodamine B assay; assay type: functional
COLO 205 = experiment: Cytotoxicity against human COLO205 cells assessed as cell growth level at 10 uM after 48 hrs by sulforhodamine B assay; assay type: functional
SK-MEL-28 = experiment: Cytotoxicity against human SK-MEL-28 cells assessed as cell growth level at 10 uM after 48 hrs by sulforhodamine B assay; assay type: functional
MCF7 = experiment: Cytotoxicity against human MCF7 cells assessed as cell growth level at 10 uM after 48 hrs by sulforhodamine B assay; assay type: functional
SR = experiment: Cytotoxicity against human SR cells assessed as cell growth level at 10 uM after 48 hrs by sulforhodamine B assay; assay type: functional
SK-MEL-5 = experiment: Cytotoxicity against human SK-MEL-5 cells assessed as cell growth level at 10 uM after 48 hrs by sulforhodamine B assay; assay type: functional

CCSc1nc2cc3c(cc2o1)C(=O)c1ccccc1C3=O
Activity (SNB-75): 96.42%
Activity (RPMI-8226): 91.04%
Activity (NCI-H460): 100.33%
IC50 [1]: > 30 µM
Activity (M14): 98.8%
Activity [2]: 94.25%
Activity (SNB-19): 99.9%
Activity [3]: 95.99%
Activity [4]: 104.57%
Activity (NCI-H23): 90.76%
Activity (HOP-62): 75.13%
Activity (CAKI-1): 93.49%
Activity [5]: 96.65%
Activity (MOLT-4): 101.76%
Activity [6]: 92.45%
Activity [7]: 84.23%
Activity (HT-29): 89.08%
Activity (DU-145): 107.71%
Activity (SW-620): 91.86%
Activity (786-0): 99.33%
Activity (SF-268): 102.22%
Activity (T47D): 96.02%
Activity (MDA-MB-435): 101.49%
Activity (HOP-92): 72.67%
Activity (NCI-H226): 82.45%
Activity [8]: 57.94%
Activity (TK-10): 100.92%
Activity (A498): 80.69%
Activity (SK-MEL-2): 96.71%
Activity (SN12C): 98.57%
Activity (KM12): 101.43%
Activity (BT-549): 114.59%
Activity (SF-539): 94.61%
Activity [9]: 92.46%
Activity (NCI-H322M): 77.88%
Activity (LOX IMVI): 91%
Activity [10]: 101%
Activity [11]: 90.67%
Activity (MDA-MB-468): 88.73%
Activity (SF-295): 92.06%
Activity (K562): 96.26%
Activity (ACHN): 90.86%
Activity (COLO 205): 98.08%
Activity (SK-MEL-28): 92.36%
Activity (MCF7): 81.27%
Activity (SR): 92.53%
Activity (SK-MEL-5): 100.35%

O=C1c2ccccc2C(=O)c2cc3oc(SCc4ccc(F)cc4)nc3cc21
Activity (SNB-75): 88.45%
Activity (RPMI-8226): 96.5%
Activity (NCI-H460): 84.05%
IC50 [1]: > 30 µM
Activity (M14): 103.58%
Activity [2]: 74.06%
Activity (SNB-19): 104.56%
Activity [3]: 88.61%
Activity [4]: 94.94%
Activity (NCI-H23): 90.64%
Activity (HOP-62): 89.39%
Activity (CAKI-1): 90.54%
Activity [5]: 94.53%
Activity (MOLT-4): 90.09%
Activity [6]: 98.94%
Activity [7]: 88.52%
Activity (HT-29): 91.18%
Activity (DU-145): 103.51%
Activity (SW-620): 100.32%
Activity (786-0): 98.08%
Activity (SF-268): 103.49%
Activity (T47D): 102.69%
Activity (MDA-MB-435): 91.05%
Activity (HOP-92): 74.13%
Activity (NCI-H226): 83.03%
Activity [8]: 77.49%
Activity (TK-10): 92.13%
Activity (A498): 94.5%
Activity (SK-MEL-2): 86.04%
Activity (SN12C): 92.48%
Activity (KM12): 104.72%
Activity (BT-549): 102.4%
Activity (SF-539): 94.71%
Activity [9]: 94.89%
Activity (NCI-H322M): 85.42%
Activity (LOX IMVI): 94.24%
Activity [10]: 115.02%
Activity [11]: 86.24%
Activity (MDA-MB-468): 90.68%
Activity (SF-295): 86.95%
Activity (K562): 93.54%
Activity (ACHN): 82.53%
Activity (COLO 205): 103.52%
Activity (SK-MEL-28): 98.54%
Activity (MCF7): 80.56%
Activity (SR): 85.14%
Activity (SK-MEL-5): 97.58%

CN(C)CCCSc1nc2cc3c(cc2o1)C(=O)c1ccccc1C3=O
Activity (SNB-75): 88.28%
Activity (RPMI-8226): 84.91%
Activity (NCI-H460): 60.58%
IC50 [1]: 16 µM
Activity (M14): 101.41%
Activity [2]: 109.08%
Activity (SNB-19): 90.07%
Activity [3]: 59.24%
Activity [4]: 86.43%
Activity (NCI-H23): 97.69%
Activity (HOP-62): 85.62%
Activity (CAKI-1): 73.88%
Activity [5]: 68.98%
Activity (MOLT-4): 13.77%
Activity [6]: 99.82%
Activity [7]: 85.96%
Activity (HT-29): 64.03%
Activity (DU-145): 53.81%
Activity (SW-620): 69.11%
Activity (786-0): 86.09%
Activity (SF-268): 102.39%
Activity (T47D): 82.2%
Activity (MDA-MB-435): 85.47%
Activity (HOP-92): 34.36%
Activity (NCI-H226): 100.17%
Activity [8]: 59.82%
Activity (TK-10): 73.42%
Activity (A498): 72.09%
Activity (SK-MEL-2): 92.13%
Activity (SN12C): 88.52%
Activity (KM12): 82.13%
Activity (BT-549): 107.23%
Activity (SF-539): 87.3%
Activity [9]: 72.26%
Activity (NCI-H322M): 85.16%
Activity (LOX IMVI): 76.64%
Activity [10]: 100.68%
Activity [11]: 77.71%
Activity (MDA-MB-468): 88.6%
Activity (SF-295): 92.69%
Activity (K562): 51.17%
Activity (ACHN): 57.3%
Activity (COLO 205): 59.49%
Activity (SK-MEL-28): 108.23%
Activity (MCF7): 52.24%
Activity (SR): 28.03%
Activity (SK-MEL-5): 90.17%
